Measured values as given in ChEMBL document CHEMBL3046617, “Effects of fungicides on in vitro spore germination and mycelial growth of the phytopathogens Leptosphaeria maculans and L. biglobosa (phoma stem canker of oilseed rape)” (2010).
≈ marks a conversion by molar mass, not a printed value. Calls of active or inactive are those of the source. No cut-off for these calls is given here.

Tests used:
Plenodomus biglobosus [1] = assay: Antifungal activity against Leptosphaeria biglobosa assessed as ascospore germination at 0.25 to 1 ug/ml after 22 hr; format: functional
Plenodomus lingam [2] = assay: Antifungal activity against Leptosphaeria maculans assessed as reduction of germ tube length at 0.5 ug/ml after 22 hr relative to control; format: functional; design: scale not given: the % may be the effect or the level left
Plenodomus lingam [3] = assay: Antifungal activity against Leptosphaeria maculans assessed as reduction of germ tube length at 0.25 ug/ml after 22 hr relative to control; format: functional; design: scale not given: the % may be the effect or the level left
Plenodomus biglobosus [4] = assay: Antifungal activity against Leptosphaeria biglobosa assessed as inhibition of conidia germination at 0.25 to 1 ug/ml after 22 hr; format: functional, organism-based
Plenodomus lingam [5] = assay: Antifungal activity against Leptosphaeria maculans assessed as inhibition of conidia germination at 0.25 to 1 ug/ml after 22 hr; format: functional, organism-based
Plenodomus lingam [6] = assay: Antifungal activity against Leptosphaeria maculans assessed as reduction of conidia production at 0.25 to 1 ug/ml after 2 weeks; format: functional, organism-based
Plenodomus biglobosus [7] = assay: Antifungal activity against Leptosphaeria biglobosa assessed as reduction of conidia production at 0.25 to 1 ug/ml after 2 weeks; format: functional, organism-based
Plenodomus biglobosus [8] = assay: Antifungal activity against Leptosphaeria biglobosa assessed as viable ascospore at 0.25 to 1 ug/ml after 1 week; format: functional, organism-based
Plenodomus lingam [9] = assay: Antifungal activity against Leptosphaeria maculans assessed as viable ascospore at 0.25 to 1 ug/ml after 1 week; format: functional, organism-based
Plenodomus biglobosus [10] = assay: Antifungal activity against Leptosphaeria biglobosa assessed as reduction of germ tube length at 1 ug/ml after 22 hr relative to control; format: functional; design: scale not given: the % may be the effect or the level left
Plenodomus biglobosus [11] = assay: Antifungal activity against Leptosphaeria biglobosa assessed as reduction of germ tube length at 0.5 ug/ml after 22 hr relative to control; format: functional; design: scale not given: the % may be the effect or the level left
Plenodomus biglobosus [12] = assay: Antifungal activity against Leptosphaeria biglobosa assessed as reduction of germ tube length at 0.25 ug/ml after 22 hr relative to control; format: functional; design: scale not given: the % may be the effect or the level left
Plenodomus lingam [13] = assay: Antifungal activity against Leptosphaeria maculans assessed as reduction of germ tube length at 1 ug/ml after 22 hr relative to control; format: functional; design: scale not given: the % may be the effect or the level left
Plenodomus biglobosus [14] = assay: Antifungal activity against Leptosphaeria biglobosa assessed as inhibition of mycelial growth after 7 days; format: functional; settings: 168 h, read-out: ED50 (the source's name)
Plenodomus lingam [15] = assay: Antifungal activity against Leptosphaeria maculans assessed as inhibition of mycelial growth after 17 days; format: functional; settings: 408 h, read-out: ED50 (the source's name)
Plenodomus biglobosus [16] = assay: Antifungal activity against Leptosphaeria biglobosa assessed as viable conidia at 0.25 to 1 ug/ml after 1 week; format: functional, organism-based
Plenodomus lingam [17] = assay: Antifungal activity against Leptosphaeria maculans assessed as viable conidia at 0.25 to 1 ug/ml after 1 week; format: functional, organism-based
Plenodomus lingam [18] = assay: Antifungal activity against Leptosphaeria maculans assessed as ascospore germination at 0.25 to 1 ug/ml after 22 hr; format: functional
Plenodomus biglobosus [19] = assay: Antifungal activity against Leptosphaeria biglobosa assessed as inhibition of conidia germination at 0.75 to 3 ug/ml after 22 hr; format: functional, organism-based
Plenodomus lingam [20] = assay: Antifungal activity against Leptosphaeria maculans assessed as inhibition of conidia germination at 0.75 to 3 ug/ml after 22 hr; format: functional, organism-based
Plenodomus lingam [21] = assay: Antifungal activity against Leptosphaeria maculans assessed as reduction of conidia production at 0.75 to 3 ug/ml after 2 weeks; format: functional, organism-based
Plenodomus biglobosus [22] = assay: Antifungal activity against Leptosphaeria biglobosa assessed as reduction of conidia production at 0.75 to 3 ug/ml after 2 weeks; format: functional, organism-based
Plenodomus biglobosus [23] = assay: Antifungal activity against Leptosphaeria biglobosa assessed as viable ascospore at 0.75 to 3 ug/ml after 1 week; format: functional, organism-based
Plenodomus lingam [24] = assay: Antifungal activity against Leptosphaeria maculans assessed as viable ascospore at 0.75 to 3 ug/ml after 1 week; format: functional, organism-based
Plenodomus biglobosus [25] = assay: Antifungal activity against Leptosphaeria biglobosa assessed as reduction of germ tube length at 3 ug/ml after 22 hr relative to control; format: functional; design: scale not given: the % may be the effect or the level left
Plenodomus biglobosus [26] = assay: Antifungal activity against Leptosphaeria biglobosa assessed as reduction of germ tube length at 1.5 ug/ml after 22 hr relative to control; format: functional; design: scale not given: the % may be the effect or the level left
Plenodomus biglobosus [27] = assay: Antifungal activity against Leptosphaeria biglobosa assessed as reduction of germ tube length at 0.75 ug/ml after 22 hr relative to control; format: functional; design: scale not given: the % may be the effect or the level left
Plenodomus lingam [28] = assay: Antifungal activity against Leptosphaeria maculans assessed as reduction of germ tube length at 3 ug/ml after 22 hr relative to control; format: functional; design: scale not given: the % may be the effect or the level left
Plenodomus lingam [29] = assay: Antifungal activity against Leptosphaeria maculans assessed as reduction of germ tube length at 1.5 ug/ml after 22 hr relative to control; format: functional; design: scale not given: the % may be the effect or the level left
Plenodomus lingam [30] = assay: Antifungal activity against Leptosphaeria maculans assessed as reduction of germ tube length at 0.75 ug/ml after 22 hr relative to control; format: functional; design: scale not given: the % may be the effect or the level left
Plenodomus biglobosus [31] = assay: Antifungal activity against Leptosphaeria biglobosa assessed as viable conidia at 0.75 to 3 ug/ml after 1 week; format: functional, organism-based
Plenodomus lingam [32] = assay: Antifungal activity against Leptosphaeria maculans assessed as viable conidia at 0.75 to 3 ug/ml after 1 week; format: functional, organism-based
Plenodomus lingam [33] = assay: Antifungal activity against Leptosphaeria maculans assessed as ascospore germination at 0.75 to 3 ug/ml after 22 hr; format: functional
Plenodomus biglobosus [34] = assay: Antifungal activity against Leptosphaeria biglobosa assessed as ascospore germination at 0.75 to 3 ug/ml after 22 hr; format: functional
Plenodomus lingam [35] = assay: Antifungal activity against Leptosphaeria maculans; format: functional; settings: read-out: ED50 (the source's name)
Plenodomus biglobosus [36] = assay: Antifungal activity against Leptosphaeria biglobosa assessed as inhibition of conidia germination at 4 ug/ml after 22 hr; format: functional
Plenodomus lingam [37] = assay: Antifungal activity against Leptosphaeria maculans assessed as inhibition of conidia germination at 4 ug/ml after 22 hr; format: functional
Plenodomus biglobosus [38] = assay: Antifungal activity against Leptosphaeria biglobosa assessed as reduction of conidia production at 1 to 4 ug/ml after 2 weeks; format: functional, organism-based
Plenodomus biglobosus [39] = assay: Antifungal activity against Leptosphaeria biglobosa assessed as viable ascospore at 1 to 4 ug/ml after 1 week; format: functional, organism-based
Plenodomus lingam [40] = assay: Antifungal activity against Leptosphaeria maculans assessed as viable ascospore at 1 to 4 ug/ml after 1 week; format: functional, organism-based
Plenodomus biglobosus [41] = assay: Antifungal activity against Leptosphaeria biglobosa assessed as reduction of germ tube length at 4 ug/ml after 22 hr relative to control; format: functional; design: scale not given: the % may be the effect or the level left
Plenodomus biglobosus [42] = assay: Antifungal activity against Leptosphaeria biglobosa assessed as reduction of germ tube length at 2 ug/ml after 22 hr relative to control; format: functional; design: scale not given: the % may be the effect or the level left
Plenodomus lingam [43] = assay: Antifungal activity against Leptosphaeria maculans assessed as reduction of germ tube length at 4 ug/ml after 22 hr relative to control; format: functional; design: scale not given: the % may be the effect or the level left
Plenodomus lingam [44] = assay: Antifungal activity against Leptosphaeria maculans assessed as reduction of germ tube length at 2 ug/ml after 22 hr relative to control; format: functional; design: scale not given: the % may be the effect or the level left
Plenodomus lingam [45] = assay: Antifungal activity against Leptosphaeria maculans assessed as viable conidia at 2 to 4 ug/ml after 1 week; format: functional, organism-based
Plenodomus biglobosus [46] = assay: Antifungal activity against Leptosphaeria biglobosa assessed as viable conidia at 2 to 4 ug/ml after 1 week; format: functional, organism-based
Plenodomus lingam [47] = assay: Antifungal activity against Leptosphaeria maculans assessed as reduction of conidia production at 1 to 4 ug/ml after 2 weeks; format: functional, organism-based
Plenodomus lingam [48] = assay: Antifungal activity against Leptosphaeria maculans assessed as ascospore germination at 1 to 4 ug/ml after 22 hr; format: functional
Plenodomus biglobosus [49] = assay: Antifungal activity against Leptosphaeria biglobosa assessed as ascospore germination at 1 to 4 ug/ml after 22 hr; format: functional

`C[Si](Cn1cncn1)(c1ccc(F)cc1)c1ccc(F)cc1` [FLUSILAZOLE] showed an Activity (Plenodomus biglobosus [1]) of 94%, an Activity (Plenodomus lingam [2]) of 22.1% and an Activity (Plenodomus lingam [3]) of 15.9%. The inhibition (Plenodomus biglobosus [4]) was “Active”, the inhibition (Plenodomus lingam [5]) was “Active” and the Activity (Plenodomus lingam [6]) was “inactive”. For the same molecule, the Activity (Plenodomus biglobosus [7]) was “Active”, the Activity (Plenodomus biglobosus [8]) was “inactive” and the Activity (Plenodomus lingam [9]) was “inactive”. The Activity (Plenodomus biglobosus [10]) was 53.8%, the Activity (Plenodomus biglobosus [11]) was 56.3% and the Activity (Plenodomus biglobosus [12]) was 56.9%. It also gave an Activity (Plenodomus lingam [13]) of 22.5%, an EC50 (Plenodomus biglobosus [14]) of 0.67 µg/mL (≈ 2.12 µM) and an EC50 (Plenodomus lingam [15]) of 0.27 µg/mL (≈ 0.856 µM). For the same molecule, the Activity (Plenodomus biglobosus [16]) was “inactive”, the Activity (Plenodomus lingam [17]) was “inactive” and the Activity (Plenodomus lingam [18]) was 96%.

In the case of `CC(C)(C)C(O)(CCc1ccc(Cl)cc1)Cn1cncn1` (stereo not drawn) [TEBUCONAZOLE], the inhibition (Plenodomus biglobosus [19]) was “Active”, the inhibition (Plenodomus lingam [20]) was “Active” and the Activity (Plenodomus lingam [21]) was “inactive”. For the same molecule, the Activity (Plenodomus biglobosus [22]) was “Active”, the Activity (Plenodomus biglobosus [23]) was “inactive” and the Activity (Plenodomus lingam [24]) was “inactive”. The Activity (Plenodomus biglobosus [25]) was 69.6%, the Activity (Plenodomus biglobosus [26]) was 63.4% and the Activity (Plenodomus biglobosus [27]) was 64.3%. It also gave an Activity (Plenodomus lingam [28]) of 43.2%, an Activity (Plenodomus lingam [29]) of 36.7% and an Activity (Plenodomus lingam [30]) of 44%. The EC50 (Plenodomus biglobosus [14]) was 1.45 µg/mL (≈ 4.71 µM), the EC50 (Plenodomus lingam [15]) was 0.34 µg/mL (≈ 1.1 µM) and the Activity (Plenodomus biglobosus [31]) was “inactive”. The Activity (Plenodomus lingam [32]) was “inactive”, the Activity (Plenodomus lingam [33]) was 96% and the Activity (Plenodomus biglobosus [34]) was 94%.

With `OC(Cn1cncn1)(c1ccc(F)cc1)c1ccccc1F` (stereo not drawn) [FLUTRIAFOL] the EC50 (Plenodomus lingam [35]) was 0.45 µg/mL (≈ 1.49 µM).

`CCCCNC(=O)n1c(NC(=O)OC)nc2ccccc21` [BENOMYL] was tested, and the inhibition at 4 µg/mL (Plenodomus biglobosus [36]) was 15%, the inhibition at 4 µg/mL (Plenodomus lingam [37]) was > 80% and the Activity (Plenodomus biglobosus [38]) was “Active”. The Activity (Plenodomus biglobosus [39]) was “inactive”, the Activity (Plenodomus lingam [40]) was “inactive” and the Activity (Plenodomus biglobosus [41]) was 81.6%. The Activity (Plenodomus biglobosus [42]) was 85.5%, the Activity (Plenodomus biglobosus [10]) was 4.5% and the Activity (Plenodomus lingam [43]) was 65.8%. The Activity (Plenodomus lingam [44]) was 68.3%, the Activity (Plenodomus lingam [13]) was 46.8% and the Activity (Plenodomus lingam [45]) was “Active”. The Activity (Plenodomus biglobosus [46]) was “Active”, the Activity (Plenodomus lingam [47]) was “inactive” and the Activity (Plenodomus lingam [48]) was 96%. It also gave an Activity (Plenodomus biglobosus [49]) of 94%.
